As usually defined, the CC50 is the concentration that lowers cell viability or growth by half. The term EC50 denotes the midpoint of the concentration-response curve. As usually defined, the Cmax is the peak of the concentration-time curve. In general, Tmax refers to the time at which the peak concentration occurs. By AUC is commonly meant concentration integrated over time.

Like-named read-outs stand apart in the source and are kept apart here. A value given as a limit tells only on which side of the number the result lay.

The record followed here is publication PMC9138505, “Small Molecule 20S Proteasome Enhancer Regulates MYC Protein Stability and Exhibits Antitumor Activity in Multiple Myeloma” (Biomedicines, 2022).

One data set concerns L363 cells. Briefly: Cell viability, CellTiter-Glo, 72 h. The class given is cell-based. Conditions: Homo sapiens, L-363; L363, 72 h. Here is the method:
(§1) RPMI-8226, L363 and NCI-H929 cells were obtained from ATCC (Manassas, VA, USA) and were maintained in RPMI medium supplemented with 10% fetal bovine serum, and 100 U/mL penicillin/streptomycin, at 37 °C with 5% CO2. DMSO was used as the compound vehicle or vehicle control at a 0.1% final concentration for both cell culture and enzyme assay.
(§2) Error bars represent SD for triplicate wells.
(In general: ATP-based viability assays read luminescence as a measure of living cells.)

Another data set has as its system NCI-H929 cells. In words: Cell viability, CellTiter-Glo, 72 h. It counts as cell-based. Conditions: Homo sapiens; NCI-H929, 72 h; CI by 3-parameter curve. Here is the method: as §1, §2
Data set [1] has as its system MYC Reporter (Luc)-HCT-116 cells. Briefly: MYC-Luc reporter assay. The class given is cell-based. The method, then: The MYC Reporter (Luc)-HCT-116 Cell line, Catalog #60520, was bought from BPS Bioscience. MYC reporter (Luc)-HCT-116 cells were seeded in a white, clear bottom, 96-well microplate at 25,000 cells/well, in McCoy’s 5A media supplemented with 10% FBS and 1% penicillin/streptomycin. The plate was incubated at 37 °C with 5% CO2 overnight. The next day, cells were treated with 0.0 µM, 0.1 µM, 1.0 µM, 2.5 µM, 5.0 µM, 10 µM, or 20 µM TCH-165, in Opti-MEM supplemented with 0.5% FBS, 1% non-essential amino acids, 1 mM Sodium Pyruvate and 1% penicillin/streptomycin. The plate was incubated at 37 °C with 5% CO2 for 16 h. Firefly luminescence was measured using the One-Step Luciferase Assay System from BPS Biosciences.
(In general: In a reporter assay the amount or activity of a reporter protein is the signal.)

The subject of data set [2] is primary cells from a BTZ refractory MM patient. In words: Primary cell viability, CellTiter-Glo, 72 h. Particulars: Homo sapiens.
Excerpt: White blood cells (WBCs) were separated from red blood cells by the Ficoll density gradient. Multiple myeloma cells were then isolated from WBCs using human CD138 affinity magnetic beads (Miltenyi Biotec; cat#130-093-062; Gaithersburg, MD, USA) following the manufacturer’s protocol. Cells were cryopreserved in 10% DMSO in FBS. Revived cells were maintained in an RPMI medium with 10% FBS for 10 days prior to treatment. […] Cells were equilibrated to RT and CellTiter-Glo (Promega; Madison, WI, USA) solution (100 μL) was added and incubated with shaking for 10 min at RT. The assay plate was then allowed to equilibrate for 5 min at RT and luminescent readings were taken on a SpectraMax® M5. Data are presented as a percentage of the vehicle control for each experimental condition, after background subtraction. Error bars represent SD for triplicate wells.
A short description of data set [3]: Pharmacokinetic assessment in CD-1 mice. The class given is in vivo. Conditions: for Cmax / Tmax: po, 100 mg/kg. Here is the method: The PK study was carried out with CD-1 mice (males, 6–8 weeks of age, n = 3 per treatment group) weighing between 24.9 g to 33.7 g immediately prior to dosing. TCH-165 (100 mg/kg) was administered by oral gavage, as a homogeneous suspension in a 3:7 (v/v) propylene glycol: 5% dextrose as a vehicle. A second dose of 100 mg/kg TCH-165 was administered approximately 8 h post-initial gavage. Blood was collected at 0.5 h, 1 h, 2 h, 4 h, 8 h, 9 h, 10 h, 12 h, and 16 h post-initial gavage in lithium heparin tubes. Plasma was separated by centrifugation and analyzed using mass spectrometry.

Data set [4] concerns RPMI-8226, L363 and H929 cells. In words: Assessment of apoptosis, Caspase-Glo 3/7 assay. The class given is cell-based, human. Conditions: all three MM cell lines, 24 h (Figure S1).
Description: Apoptosis was evaluated with the Caspase-Glo 3/7 assay kit (Promega; Madison, WI, USA) according to the manufacturer’s instructions. […] Staurosporine (81590, Cayman), an apoptosis inducer, was used as a positive control at 10 μM concentration for 3 h of incubation. After the incubation, the caspase reagent was added to the cells and incubated at 37 °C for 30 min. The luminescent signal was detected by the EnVision plate reader (PerkinElmer; Waltham, MA, USA) and the data were analyzed by Graph Pad Prism (9.2.0, Graph Pad Software Inc., San Diego, CA, USA).
Data set [5] deals with human constitutive 20S proteasome. In words: Proteasome activity in purified protein assay (fluorogenic AMC peptide substrates). It counts as biochemical. The method, then:
The proteolytic activity of the 20S proteasome can be monitored in vitro by measuring the cleavage of fluorogenic peptide substrates for the different catalytic sites as an increase in 7-amino-4-methylcoumarin (AMC) fluorescence over time, as previously reported. Purified human 20S proteasome was pre-treated with a concentration range of TCH-165 or DMSO (vehicle control) for 15 min at 37 °C, on a black flat/clear bottom 96-well plate containing 1 nM of human constitutive 20S proteasome in 50 mM Tris-HCl pH 7.5. Fluorogenic substrates, Suc-LLVY-AMC (CT-L activity, 10 μM), Z-LLE-AMC (Casp-L activity, 10 μM), Boc-LRR-AMC (Tryp-L activity, 20 μM), were then added and the enzymatic activity measured at 37 °C on a SpectraMax M5e spectrometer by measuring an increase in the fluorescence unit per minute for 1 h at 380–460 nm. The release of AMC was monitored as fluorescence over time for 1 h and the resulting 20S activity changes were determined by comparing to the untreated 20S and calculating the fold-increase in activity over vehicle control for each analog at a given concentration.

The nature of data set [6]: Tolerance in dogs (clinical observations, body weight, CBC, clinical chemistry). Conditions: beagles. The class given is in vivo, beagle dogs. The method, then:
Adult beagle dogs (male, 12 months of age, n = 3), weighing approximately 10 kg, received a […] of the test compound at 500 mg bid delivered in capsule form. Blood (approximately 2.5 mL) was collected into lithium heparin tubes at 0, 1 h, 2 h, 4 h, 8 h, and 24 h post-day 1 and post-day 5 dose for PK assessment using mass spectrometry. Blood (approximately 2 mL) was also collected and divided into EDTA and standard clot tubes on day 6 post-dose for determination of CBC and clinical chemistry parameters, respectively, and analyzed at the Michigan State University Veterinary Diagnostic Laboratory. Clinical observations were conducted daily on non-dosing days and twice on dosing days.

Regarding `CCOC(=O)[C@]1(c2ccccc2)N=C(c2ccc(OC)cc2)N(Cc2ccccc2)[C@@H]1c1ccc(NCc2ccccc2)cc1` [TCH-165], the CC50 worked out at 5 µM with L363 cells, 4.3 µM in the data set with NCI-H929 cells and 8.1 µM in data set [2]. Moreover, the EC50 in data set [1] (Homo sapiens, stably transfected HCT-116 cells, 16 h, 95% CI 2.46–2.95, read-out: EC50 of decrease of MYC-mediated luciferase transcription) was 2.57 µM. For the same compound, in data set [1] (TCH-165 3 μM after bortezomib 10 nM, 2 h pre-incubation), the “MYC-mediated luciferase transcription with addition of bortezomib” value is reported as “restored luciferase transcription back to the levels of the vehicle control”. Moreover, the Cmax turned out to be 1430 ± 625 nM in data set [3] (male, CD-1, mouse, plasma, CD-1 mice, 100 mg/kg oral bid, second dose 8 h after the first, read-out: Cmax following the second dose) and 932 ± 184 nM in data set [3] (male, CD-1, mouse, plasma, CD-1 mice, 100 mg/kg oral gavage, plasma, read-out: Cmax following the first dose). Also, the Tmax in data set [3] (male, CD-1, mouse, plasma, CD-1 mice, 100 mg/kg oral bid, second dose 8 h after the first, read-out: Tmax following the second dose) stood at 12 h; in data set [3] (male, CD-1, mouse, plasma, CD-1 mice, 100 mg/kg oral gavage, read-out: Tmax following the first dose), 2 h. Besides, in data set [3] (male, CD-1, mouse, plasma, mice, means, 100 mg/kg bid oral, read-out: AUC (nM) (0-16 for mice)), the AUC was 14 µM·h. For the same compound, in data set [3] (male, mouse, plasma, CD-1 mice, 100 mg/kg oral bid, trapezoidal method, read-out: mean AUC (0–16 h)), the AUC(0-t) came to 14 µM·h. Besides, in data set [3] (mouse PK study), the “metabolic lability of the ester moiety (by LC-MS)” value is recorded as “not metabolically labile”. Further, the “induction of apoptosis (caspase 3/7 activity)” value in data set [4] is recorded as “induction of apoptosis”. The “EC200 (concentration at which TCH-165 doubles 20S activity)” value in data set [5] (CT-L site (b-5), substrate Suc-LLVY-AMC) was found to be 1.5 µM. The “Fold^M (maximum fold enhancement of 20S activity)” value was determined as 810% in data set [5] (CT-L site, Suc-LLVY-AMC); 1290% in data set [5] (Casp-L site, Z-LLE-AMC); 500% in data set [5] (Tryp-L site, Boc-LRR-AMC). The compound further displayed a body weight change in data set [6] (50 mg/kg bid oral capsule, five consecutive days) of less than 1%. For the same compound, the “clinical observations, body weight, complete blood counts and clinical chemistry panel compared to pre-dose status” value in data set [6] (50 mg/kg bid oral capsule, five days) was “no significant changes”. Further, the “notable change in the clinical chemistry profile” value in data set [6] (day 5 of administration) is on record as “increase in plasma iron concentrations”.
